Measured values published in paper PMC8021118, “Shared recognition of citrullinated tenascin-C peptides by T and B cells in rheumatoid arthritis” (JCI Insight, 2021).
Several values for one entry are separate records, joined by “and”; a condition that tells them apart may be missing. Equal values may be shown once. Where a SMILES comes first, the peptide text is derived from it. Where no end group is shown, it is not given here. [ ]: non-standard residue; d: D form. Cit = NC(=O)NCCC[C@H](N)C(=O)O

Assays:
[1] = test system: CD4+ T cells in PBMC from HLA-DRB1*04:01+ subjects; test: In vitro expansion of peptide-specific CD4+ T cells from PBMC and HLA class II tetramer staining; format: cell-based, human; conditions: for Responders (% in RA): RA subjects with positive in vitro response (>0.1% of CD4+ T cells tetramer+) of total tested, 10 μg/mL peptide, 14 days, n = 14, TNC44 and TNC59 n = 6; for Immunogenicity: Supplemental Table 1, ability to elicit an immune response in vitro (tetramer staining after expansion)
Description: TNC is a large protein (2110 amino acids in length) composed of an N-terminal assembly domain, 14.5 epidermal growth factor–like repeats (EGF-L), 8 constant fibronectin type III–like repeats (FNIII), and an additional 9 alternatively spliced FNIII elements, and a C-terminal fibrinogen-like globe (FBG) ([16]). Using a previously described algorithm ([9], [24]), we scanned the entire length of the TNC monomer and identified 64 arg-containing peptides with motifs that would predict to permit binding to HLA-DRB1*04:01 in either their noncitrullinated native form, citrullinated form, or both. Based on these predictions, we synthesized the citrullinated versions of these peptides and tested their ability to bind HLA-DRB1*04:01 and to elicit CD4^+ T cell expansion in vitro. Of the peptides synthesized, 8 cit-TNC peptides bound to HLA-DRB1*04:01 with moderate to high affinity (Table 1). Among these, cit-TNC17, cit-TNC22, cit-TNC45, cit-TNC50, and cit-TNC56 were determined to be the most immunogenic, based on their ability to drive epitope-specific T cell expansion, as measured by HLA class II tetramer (Tmr) staining of peripheral blood mononuclear cells (PBMC) from HLA-DRB1*04:01^+ subjects following 2 weeks of in vitro expansion (Table 1 and Supplemental Figure 1; supplemental material available online with this article; https://doi.org/10.1172/jci.insight.145217DS1).
Recombinant HLA-DRB1*04:01 protein was produced by the BRI Tetramer Core as previously described ([56]). Soluble HLA-DRB1*04:01 monomer was purified from insect cell culture supernatants and biotinylated at a sequence-specific site using biotin ligase (Avidity) prior to dialysis into phosphate storage buffer. The biotinylated monomer was loaded with 0.2 mg/mL of peptide by incubating at 37°C for 72 hours in the presence of 2.5 mg/mL n-octyl β-D-glucopyranoside and 1 mM Pefabloc SC (Sigma-Aldrich). Peptide-loaded monomers were conjugated into Tmrs using fluorescently labeled streptavidin (Invitrogen) for 6–18 hours at room temperature at a molar ratio of 8:1.
Cryopreserved PBMCs from RA and healthy subjects were cultured at 5 × 10^6 cells/well in a 48-well plate in RPMI-1640 + 10% HPS with 10 μg/mL of peptide. IL-2 (Novartis) was added at 325 IU/mL on day 6. On day 14, cells were stained for expression of Tmr-PE, CD25 APC (BD Biosciences), and CD4 FITC (BioLegend) (Supplemental Table 8) and then run on a FACSCanto. The data were analyzed by FlowJo software version 10.

[2] = test system: CD4+ memory T cells in peripheral blood; test: Ex vivo detection of peptide-specific memory CD4+ T cells by multiplex HLA class II tetramer staining; format: cell-based, human; conditions: for Frequencies of peptide-specific memory CD4+ T cells: mean ± SEM, SEM
HLA-DRB1*04:01 = HLA-DRB1*04:01 (Homo sapiens, UniProt P01903+P01911, A100K/A169T/F76Y/I96L/K127E/L162R/M171V/N62H/P40V/Q125Y/R42H/S133A/S149N/S66Y/V115G/V209L/W38E); test: Peptide competition binding assay to HLA-DRB1*04:01
[3] = test system: serum IgG antibodies of RA subjects; test: ELISA for serum antibodies against peptide; format: binding, human; conditions: Cys-flanked ELISA peptides
Experimental: (§1) ELISAs were used to detect antibodies against citrullinated peptides in sera from patients in Autoantibody Cohorts 1 and 2 (Supplemental Table 2). Peptides used in the assay were synthesized by either GenScript or Pepceutical and are described in Supplemental Table 5. The ELISAs were conducted as previously described ([18], [26]). In brief, 96-well Nunc Maxisorp plates were coated with 10 μg/mL peptide in PBS, blocked with 2% BSA, and incubated with sera diluted 1:100. Bound antibodies were detected with an HRP-conjugated anti–human IgG Fc monoclonal antibody (6043HRP, Stratech). A standard curve of positive sera was used to calculate relative antibody titers in arbitrary units (AU) for each sample. The CCP2 ELISA for Autoantibody Cohort 1 was performed as by the manufacturer’s instruction (FCCP600, Axis-Shield). Cross-reactivity to cit-TNC56, cit-TNC17, or cit-TNC5 was analyzed in human sera reactive to cit-TNC56 or cit-TNC17. Sera were diluted 1:100, incubated with 1, 10, and 100 μg/mL of peptides for 2 hours and centrifuged at 10,000g for 10 minutes at room temperature, and the supernatant was added to peptide-coated plates for analysis by ELISA as described above. Positivity was defined by the cut-off of the 98th percentile of HC samples from Autoantibody Cohort 1.

[4] = test system: Synovial fluid mononuclear cells (SFMC) from HLA-DRB1*04:01 RA patients; test: FluoroSpot cytokine secretion by synovial fluid mononuclear cells stimulated with peptide; format: cell-based, human; conditions: for IFN-γ secretion by SFMC (in words): 20 μg/mL peptide, 48 hours, 3-color FluoroSpot, RA n = 7, 15-mer T cell peptides; for IL-10 production by SFMC (in words) / IL-17 production by SFMC (in words): peptide stimulation 48 hours, three-color fluorospot, RA n=7
[5] = test system: anti-cit-TNC antibodies in double-reactive RA sera; test: Cross-reactivity (peptide absorption/inhibition) ELISA; format: binding, human; conditions: for Absorption by the homologous peptide (in words): sera double-reactive for cit-TNC17 and cit-TNC56
Experimental: Sera that were double-reactive with peptides cit-TNC17 or cit-TNC56 and cit-TNC56, cit-TNC17, or cit-TNC5 were diluted 1:100, incubated with 1, 10, and 100 μg/mL of peptides for 2 hours and centrifuged at 10,000g for 10 minutes, and the supernatant then added to peptide-coated plates for analysis by ELISA. […] (B) Limited cross-reactivity between anti–cit-TNC56 and both anti–cit-TNC17 and anti–cit-TNC5. Each panel was run on a separate plate.
as §1

[6] = Autoantibody Cohort 1: HLA-DRB1*04:01, CCP+ RA sera (n = 17), diluted 1:100, cut-off 98th percentile of HC
[7] = Autoantibody Cohort 2, CCP+ RA (n = 55)
[8] = Autoantibody Cohort 2, CCP– RA (n = 43)

Row | Molecule | Responders (% in RA) [1] [%] | Immunogenicity [1] | Percentages of subjects with a detectable ex vivo response ([2]; Healthy control subjects (n=7)) [%] | Frequencies of peptide-specific memory CD4+ T cells ([2]; Healthy control subjects (n=7)) | Percentages of subjects with a detectable ex vivo response ([2]; RA subjects (n=9)) [%] | Frequencies of peptide-specific memory CD4+ T cells ([2]; RA subjects (n=9)) | EC50 (HLA-DRB1*04:01) [nM] | Percentage of subjects seropositive for antibodies to peptide [3, 6] [%] | IFN-γ secretion by SFMC (in words) [4] | other results
1 | CC(C)C[C@H](NC(=O)[C@H](CCCNC(N)=O)NC(=O)[C@H](Cc1ccc(O)cc1)NC(=O)[C@H](CCCNC(N)=O)NC(=O)[C@H](CC(=O)O)NC(=O)[C@@H](N)Cc1ccccc1)C(=O)N[C@@H](CC(N)=O)C(=O)N[C@@H](Cc1ccc(O)cc1)C(=O)N[C@@H](CO)C(=O)N[C@@H](CC(C)C)C(=O)N1CCC[C@H]1C(=O)N[C@H](C(=O)NCC(=O)N[C@@H](CCC(N)=O)C(=O)N[C@@H](Cc1c[nH]c2ccccc12)C(=O)O)[C@@H](C)O [TNC22] (H-FD[Cit]Y[Cit]LNYSLPTGQW-OH) | 46 | Yes | 71 | 3.0±1.2 /million memory CD4+ T cells | 56 | 3.8±1.9 /million memory CD4+ T cells | 700 | – | – | –
2 | CC(C)C[C@H](NC(=O)[C@H](CCCNC(N)=O)NC(=O)[C@H](Cc1ccccc1)NC(=O)CNC(=O)[C@H](CC(=O)O)NC(=O)[C@@H]1CCCN1)C(=O)N[C@@H](CO)C(=O)N[C@@H](Cc1c[nH]c2ccccc12)C(=O)N[C@H](C(=O)N[C@@H](C)C(=O)N[C@@H](CC(=O)O)C(=O)N[C@@H](CCC(=O)O)C(=O)NCC(=O)N[C@H](C(=O)N[C@@H](Cc1ccccc1)C(=O)O)C(C)C)[C@@H](C)O [TNC45] (H-PDGF[Cit]LSWTADEGVF-OH) | 50 | Yes | 71 | 2.6±1.0 /million memory CD4+ T cells | 100 | 22.6±6.4 /million memory CD4+ T cells | 17100 | – | – | –
3 | CC[C@H](C)[C@H](NC(=O)[C@H](CCCNC(N)=O)NC(=O)[C@H](Cc1ccccc1)NC(=O)[C@H](CO)NC(=O)[C@H](CCC(=O)O)NC(=O)[C@@H](N)C(C)C)C(=O)N[C@H](C(=O)N[C@@H](Cc1ccc(O)cc1)C(=O)N[C@H](C(=O)N1CCC[C@H]1C(=O)N[C@H](C(=O)N[C@H](C(=O)NCC(=O)NCC(=O)N[C@H](C(=O)O)[C@@H](C)O)[C@@H](C)O)[C@@H](C)CC)C(C)C)[C@@H](C)O [TNC50] (H-VESF[Cit]ITYVPITGGT-OH) | 50 | Yes | 71 | 1.5±0.6 /million memory CD4+ T cells | 100 | 9.6±3.1 /million memory CD4+ T cells | 1000 | – | – | –
4 | CEHSIQFAEMKL[Cit]PSNF[Cit]NLEG[Cit][Cit]KRC (cysteine pairing not given here) [cit-TNC5, previously published cit-TNC5 peptide, positive control in antibody ELISA, reference compound] | – | – | – | – | – | – | – | 47 | – | –
5 | CEYEVSLIS[Cit][Cit]GDMSSNPAC [cit-TNC17, Cys-flanked citrullinated TNC17 peptide used for detection of antibodies by ELISA] | – | – | – | – | – | – | – | 100 | elicited IFN-γ secretion by SFMC | IL-10 production by SFMC (in words) [4]: produced; Percentage of subjects seropositive for antibodies to peptide [3, 7]: 63.6% and 64%; Percentage of subjects seropositive for antibodies to peptide [3, 8]: 2.3%; Cross-reactivity with cit-TNC5 (in words) ([5]; double-reactive sera): no cross-reactivity; Absorption by the homologous peptide (in words) [5]: efficient; maximum inhibition ([5]; serum 6, cit-TNC17 versus cit-TNC56, sera 1:100, 1, 10 and 100 μg/mL peptide, 2 hours): 22%
6 | CPTAQVESF[Cit]ITYVPITGGC [cit-TNC50, Cys-flanked citrullinated TNC50 peptide used in ELISA] | – | – | – | – | – | – | – | – | – | IL-17 production by SFMC (in words) [4]: produced
7 | CQGQYEL[Cit]VDL[Cit]DHGETAFC [cit-TNC56, Cys-flanked citrullinated TNC56 peptide used in ELISA] | – | – | – | – | – | – | – | 53 | elicited IFN-γ secretion by SFMC | IL-17 production by SFMC (in words) [4]: produced; Percentage of subjects seropositive for antibodies to peptide [3, 7]: 45.5%; Percentage of subjects seropositive for antibodies to peptide [3, 8]: 11.6%; Absorption by the homologous peptide (in words) [5]: efficient; maximum inhibition ([5]; serum 2, cit-TNC56 versus cit-TNC17, sera 1:100, 1, 10 and 100 μg/mL peptide, 2 hours): 24.8%; maximum inhibition ([5]; serum 2, cross-reactivity between cit-TNC56 and cit-TNC5): 38.7%; maximum inhibition ([5]; serum 6, citTNC56 versus cit-TNC17, sera 1:100, 1, 10 and 100 μg/mL peptide, 2 hours): 43%
8 | CTPLAKFD[Cit]Y[Cit]LNYSLPTGC [cit-TNC22, Cys-flanked citrullinated TNC22 peptide used in ELISA] | – | – | – | – | – | – | – | 35 | elicited IFN-γ secretion by SFMC | IL-10 production by SFMC (in words) [4]: produced
9 | CVSDATPDGF[Cit]LSWTADEGC [cit-TNC45, Cys-flanked citrullinated TNC45 peptide used in ELISA] | – | – | – | – | – | – | – | 29 | elicited IFN-γ secretion by SFMC | –
